Series [1] deals with CD73 (Homo sapiens (Human), UniProt P21589). The experiment in a line: CD73 cellular assay (MDA-MB-231 cells, malachite readout). Particulars: AMP substrate, 45 min, read-out: Cellular IC50 against CD73. The class given is cell-based. The procedure:
After incubating with compounds for 30 minutes, 40 μL of AMP working solution (200 μM AMP in assay buffer) was added into each well in the assay plate. The assay plate was then incubated in a 5% CO2 incubator (Thermo Fisher Scientific) at 37° C. for 45 min. After the reaction was completed, 50 μL of the supernatants was collected and transferred into a new 384 well plate. 10 μL of Malachite A was added to each well in the assay plate and incubated for 10 minutes. 10 μL of Malachite B was then added to each corresponding well of the plate and incubated for 30 minutes.

A short description of series [2]: Human microsomal stability assay. The format is in vitro ADME. To be noted: human liver microsomes 0.5 mg/mL, 1 μM test compound, 37° C., pH 7.4. The procedure: Human liver microsomes (Cat. NO.: 452117, Corning, USA) were preincubated with test compound for 10 minutes at 37° C. in 100 mM potassium phosphate buffer, pH 7.4. The reactions were initiated by adding NADPH regenerating system. The final incubation mixtures contained 1 μM test compound, 0.5 mg/mL liver microsomal protein, 1 mM MgCl2, 1 mM NADP, 1 unit/mL isocitric dehydrogenase and 6 mM isocitric acid in 100 mM potassium phosphate buffer, pH 7.4. After incubation times of 0, 3, 6, 9, 15 and 30 minutes at 37° C., 300 μL of cold ACN (including internal standard) was added to 100 μL incubation mixture to terminate the reaction. Following precipitation and centrifugation, 100 μL supernatant will be taken out and added 300 μL water. The amount of compound remaining in the samples was determined by LC-MS/MS. Controls of no NADPH regenerating system at zero and 30 minutes were also prepared and analyzed. The results were categorized as: low (<7.0 mL/min/kg), medium (7.0-16.2 mL/min/kg) and high (16.2-23.2 mL/min/kg).
In general terms: Liver microsomes are vesicles of endoplasmic reticulum, rich in cytochrome P450 enzymes.

Sequence of CD73 (P21589 27-574): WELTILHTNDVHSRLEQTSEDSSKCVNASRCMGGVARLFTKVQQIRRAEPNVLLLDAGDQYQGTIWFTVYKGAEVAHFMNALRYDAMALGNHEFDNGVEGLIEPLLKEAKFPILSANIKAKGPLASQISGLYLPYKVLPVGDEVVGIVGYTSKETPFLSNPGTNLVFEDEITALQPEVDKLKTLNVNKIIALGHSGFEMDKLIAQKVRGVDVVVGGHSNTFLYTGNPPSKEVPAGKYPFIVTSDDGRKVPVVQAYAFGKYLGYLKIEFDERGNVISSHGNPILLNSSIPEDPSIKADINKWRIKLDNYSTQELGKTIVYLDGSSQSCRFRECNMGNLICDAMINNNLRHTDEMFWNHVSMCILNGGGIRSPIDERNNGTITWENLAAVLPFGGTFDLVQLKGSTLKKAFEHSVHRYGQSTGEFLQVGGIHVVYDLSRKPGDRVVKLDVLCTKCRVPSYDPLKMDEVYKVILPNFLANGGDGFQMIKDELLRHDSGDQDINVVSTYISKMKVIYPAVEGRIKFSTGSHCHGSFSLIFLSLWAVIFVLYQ

For `Cc1nn(C)c2nnc(-c3c[nH]c(=O)[nH]c3=O)cc12` [Example 1, 5-(1,3-dimethylpyrazolo[3,4-c]pyridazin-5-yl)-1H-pyrimidine-2,4-dione], in series [1], the IC50 – broadly, the concentration needed to halve the response being measured – turned out to be 0.0569 µM. For the same compound, in series [2], the “CL (h)” value worked out at 0.488 L/h/kg.
Take `Cn1ncc2nnc(-c3c[nH]c(=O)[nH]c3=O)cc21` [Example 3, 5-(1-methylpyrazolo[4,3-c]pyridazin-6-yl)-1H-pyrimidine-2,4-dione]: in series [1], the IC50 was 0.104 µM.
For `Cn1nnc2nnc(-c3c[nH]c(=O)[nH]c3=O)cc21` [Example 4, 5-(1-methyltriazolo[4,5-c]pyridazin-6-yl)-1H-pyrimidine-2,4-dione], the IC50 in series [1] was 0.159 µM. The “CL (h)” value in series [2] is 0.369 L/h/kg.
Consider `CC(c1ccccc1)c1nn(C)c2nnc(-c3c[nH]c(=O)[nH]c3=O)cc12` (centres unmarked) [Example 5, 5-[1-methyl-3-(1-phenylethyl)pyrazolo[3,4-c]pyridazin-5-yl]-1H-pyrimidine-2,4-dione], for which, in series [2], the “CL (h)” value was determined as 0.369 L/h/kg.
Regarding `Cn1nc(C2(c3ccccc3)CC2)c2cc(-c3c[nH]c(=O)[nH]c3=O)nnc21` [Example 6, 5-[1-methyl-3-(1-phenylcyclopropyl)pyrazolo[3,4-c]pyridazin-5-yl]-1H-pyrimidine-2,4-dione], the IC50 in series [1] came out at 0.0129 µM. For the same compound, in series [2], the “CL (h)” value came out at 0.369 L/h/kg.
Take `Cn1nc(Cl)c2nnc(-c3c[nH]c(=O)[nH]c3=O)cc21` [Example 9, 5-(3-chloro-1-methyl-pyrazolo[4,3-c]pyridazin-6-yl)-1H-pyrimidine-2,4-dione]: the IC50 in series [1] worked out at 0.0467 µM. In addition, in series [2], the “CL (h)” value stood at 0.369 L/h/kg.
As to `CC(Oc1nn(C)c2nnc(-c3c[nH]c(=O)[nH]c3=O)cc12)c1ccccc1` (centres unmarked) [Example 10, 5-[1-methyl-3-(1-phenylethoxy)pyrazolo[3,4-c]pyridazin-5-yl]-1H-pyrimidine-2,4-dione], the “CL (h)” value in series [2] turned out to be 0.369 L/h/kg.
In the case of `CC(Oc1nn(C)c2nnc(-c3c[nH]c(=O)[nH]c3=O)cc12)c1cccc(C#N)c1` (centres unmarked) [Example 11, 3-[1-[5-(2,4-dioxo-1H-pyrimidin-5-yl)-1-methyl-pyrazolo[3,4-c]pyridazin-3-yl]oxyethyl]benzonitrile], the IC50 in series [1] stood at 0.0029 µM. Moreover, the “CL (h)” value in series [2] turned out to be 0.369 L/h/kg.
The like results for `CC(Oc1nn(C)c2nnc(-c3c[nH]c(=O)[nH]c3=O)cc12)c1ccc(C#N)cc1` (centres unmarked) [Example 12, 4-[1-[5-(2,4-dioxo-1H-pyrimidin-5-yl)-1-methyl-pyrazolo[3,4-c]pyridazin-3-yl]oxyethyl]benzonitrile] were, in that order, 0.0034 µM and 0.369 L/h/kg.
Turning to `CC(Oc1nn(C)c2nnc(-c3c[nH]c(=O)[nH]c3=O)cc12)c1nn(C)cc1Cl` (centres unmarked) [Example 23, 5-[3-[1-(4-chloro-1-methyl-pyrazol-3-yl)ethoxy]-1-methyl-pyrazolo[3,4-c]pyridazin-5-yl]-1H-pyrimidine-2,4-dione], in series [1], the IC50 was found to be 0.0586 µM.
Turning to `Cn1nc(O[C@H](c2ccccc2)C(F)F)c2cc(-c3c[nH]c(=O)[nH]c3=O)nnc21` [Example 28, 5-[3-[(1R)-2,2-difluoro-1-phenyl-ethoxy]-1-methyl-pyrazolo[3,4-c]pyridazin-5-yl]-1H-pyrimidine-2,4-dione], the “CL (h)” value in series [2] stood at 0.369 L/h/kg.
On the same count and under the same terms, the result for `Cn1nc(O[C@@H](c2ccccn2)C(F)(F)F)c2cc(-c3c[nH]c(=O)[nH]c3=O)nnc21` [Example 29B, 5-[1-methyl-3-[(1S)-2,2,2-trifluoro-1-(2-pyridyl)ethoxy]pyrazolo[3,4-c]pyridazin-5-yl]-1H-pyrimidine-2,4-dione] reads 0.369 L/h/kg.
As for `Cn1nc(O[C@@H](c2ccccc2)C(F)(F)F)c2cc(-c3c[nH]c(=O)[nH]c3=O)nnc21` [Example 30B, 5-[1-methyl-3-[(1S)-2,2,2-trifluoro-1-phenyl-ethoxy]pyrazolo[3,4-c]pyridazin-5-yl]-1H-pyrimidine-2,4-dione], in series [2], the “CL (h)” value stood at 0.506 L/h/kg.
The same measure, in the same setting: then `Cn1nc(O[C@H](c2ccccn2)C(F)F)c2cc(-c3c[nH]c(=O)[nH]c3=O)nnc21` [Example 31A, 5-[3-[(1R)-2,2-difluoro-1-(2-pyridyl)ethoxy]-1-methyl-pyrazolo[3,4-c]pyridazin-5-yl]-1H-pyrimidine-2,4-dione], with 0.369 L/h/kg; and `Cn1nc(O[C@@H](c2ccccn2)C(F)F)c2cc(-c3c[nH]c(=O)[nH]c3=O)nnc21` [Example 31B, 5-[3-[(1S)-2,2-difluoro-1-(2-pyridyl)ethoxy]-1-methyl-pyrazolo[3,4-c]pyridazin-5-yl]-1H-pyrimidine-2,4-dione], with 0.369 L/h/kg.
Same read-out and setting: then `Cn1nc(O[C@H](c2ccc(F)cn2)C(F)F)c2cc(-c3c[nH]c(=O)[nH]c3=O)nnc21` [Example 32A, 5-[3-[(1R)-2,2-difluoro-1-(5-fluoro-2-pyridyl)ethoxy]-1-methyl-pyrazolo[3,4-c]pyridazin-5-yl]-1H-pyrimidine-2,4-dione], with 0.369 L/h/kg; and `Cn1nc(O[C@@H](c2ccc(F)cn2)C(F)F)c2cc(-c3c[nH]c(=O)[nH]c3=O)nnc21` [Example 32B, 5-[3-[(1S)-2,2-difluoro-1-(5-fluoro-2-pyridyl)ethoxy]-1-methyl-pyrazolo[3,4-c]pyridazin-5-yl]-1H-pyrimidine-2,4-dione], with 0.369 L/h/kg.
On the same count and under the same terms, the result for `Cc1cccc([C@@H](Oc2nn(C)c3nnc(-c4c[nH]c(=O)[nH]c4=O)cc23)C(F)F)n1` [Example 33A, 5-[3-[(1R)-2,2-difluoro-1-(6-methyl-2-pyridyl)ethoxy]-1-methyl-pyrazolo[3,4-c]pyridazin-5-yl]-1H-pyrimidine-2,4-dione] reads 0.369 L/h/kg; that for `Cc1cccc([C@H](Oc2nn(C)c3nnc(-c4c[nH]c(=O)[nH]c4=O)cc23)C(F)F)n1` [Example 33B, 5-[3-[(1S)-2,2-difluoro-1-(6-methyl-2-pyridyl)ethoxy]-1-methyl-pyrazolo[3,4-c]pyridazin-5-yl]-1H-pyrimidine-2,4-dione], 0.369 L/h/kg.
`CC(N(C)c1nn(C)c2nnc(-c3c[nH]c(=O)[nH]c3=O)cc12)C(C)(C)C` (centres unmarked) [Example 34, 5-[1-methyl-3-[methyl(1,2,2-trimethylpropyl)amino]pyrazolo[3,4-c]pyridazin-5-yl]-1H-pyrimidine-2,4-dione]: in series [1], the IC50 stood at 0.0055 µM.
The same measure, in the same setting: then `CC(C1CCCC1)N(C)c1nn(C)c2nnc(-c3c[nH]c(=O)[nH]c3=O)cc12` (centres unmarked) [Example 35, 5-[3-[1-cyclopentylethyl(methyl)amino]-1-methyl-pyrazolo[3,4-c]pyridazin-5-yl]-1H-pyrimidine-2,4-dione], with 0.0021 µM.
Regarding `Cc1nc([C@H](C)Oc2nn(C)c3nnc(-c4c[nH]c(=O)[nH]c4=O)cc23)ccc1F` [Example 40, 5-[3-[(1S)-1-(5-fluoro-6-methyl-2-pyridyl)ethoxy]-1-methyl-pyrazolo[3,4-c]pyridazin-5-yl]-1H-pyrimidine-2,4-dione], the “CL (h)” value in series [2] came out at 0.369 L/h/kg.
In the case of `Cc1cccc([C@H](C)Oc2nn(C)c3nnc(-c4c[nH]c(=O)[nH]c4=O)cc23)n1` [Example 41, 5-[1-methyl-3-[(1S)-1-(6-methyl-2-pyridyl)ethoxy]pyrazolo[3,4-c]pyridazin-5-yl]-1H-pyrimidine-2,4-dione], the “CL (h)” value in series [2] came out at 0.487 L/h/kg.

The record behind these values is patent publication US20260055113A1, “HETEROARYL COMPOUNDS FOR THE TREATMENT OF CANCER” (Hoffmann-La Roche Inc., priority 2022, published 2026).
